Data from patent US12715849B2, “Herbicidal tetrazole compounds” (SYNGENTA CROP PROTECTION AG, priority 2020, dated 2026).

Experiments:
Test in all cases: Glasshouse herbicidal test, pre- and post-emergence (Table B1)
Format in all cases: in vivo
[1] = test system: Ablution theophrasti (ABUTH); settings: 130 g/h, evaluated after 13 days; for percentage damage caused to the plant, POST Application ABUTH: post-emergence; for percentage damage caused to the plant, PRE Application ABUTH: pre-emergence
Experimental: (§1) Seeds of a variety of test species are sown in standard soil in pots (Lolium perenne (LOLPE), Amaranthus retoflexus (AMARE), Amaranthus palmeri (AMAPA), Ablution theophrasti (ABUTH), Setaria faberi (SETFA), Echinochloa crus-galli (ECHCG), Ipomoea hederacea (IPOHE)). After cultivation for one day (pre-emergence) or after 8 days cultivation (post-emergence) under controlled conditions in a glasshouse (at 24/16° C., day/night; 14 hours light; 65% humidity), the plants are sprayed with an aqueous spray solution derived from the formulation of the technical active ingredient in acetone/water (50:50) solution containing 0.5% Tween 20 (polyoxyethelyene sorbitan monolaurate, CAS RN 9005-64-5). Compounds are applied at 130 g/h unless otherwise indicated. The test plants are then grown in a glasshouse under controlled conditions in a glasshouse (at 24/16° C., day/night; 14 hours light; 65% humidity) and watered twice daily. After 13 days for pre and post-emergence, the test is evaluated for the percentage damage caused to the plant. The biological activities are shown in the following table on a five-point scale (5=80-100%; 4=60-79%; 3=40-59%; 2=20-39%; 1=0-19%).

[2] = test system: Amaranthus retoflexus (AMARE); settings: 130 g/h, evaluated after 13 days; for percentage damage caused to the plant, POST Application AMARE: post-emergence; for percentage damage caused to the plant, PRE Application AMARE: pre-emergence
Experimental: as §1

[3] = test system: Echinochloa crus-galli (ECHCG); settings: 130 g/h, evaluated after 13 days; for percentage damage caused to the plant, POST Application ECHCG: post-emergence; for percentage damage caused to the plant, PRE Application ECHCG: pre-emergence
Experimental: as §1

[4] = test system: Ipomoea hederacea (IPOHE); settings: 130 g/h, evaluated after 13 days; for percentage damage caused to the plant, POST Application IPOHE: post-emergence; for percentage damage caused to the plant, PRE Application IPOHE: pre-emergence
Experimental: as §1

Setaria faberi (SETFA) = settings: 130 g/h, evaluated after 13 days; for percentage damage caused to the plant, POST Application SETFA: post-emergence; for percentage damage caused to the plant, PRE Application SETFA: pre-emergence
Experimental: as §1

[5] = test system: Amaranthus palmeri (AMAPA); settings: 130 g/h, evaluated after 13 days; for percentage damage caused to the plant, POST Application AMAPA: post-emergence; for percentage damage caused to the plant, PRE Application AMAPA: pre-emergence
Experimental: as §1

SMILES	percentage damage caused to the plant, POST Application ABUTH [1]	percentage damage caused to the plant, PRE Application ABUTH [1]	percentage damage caused to the plant, POST Application AMARE [2]	percentage damage caused to the plant, PRE Application AMARE [2]	percentage damage caused to the plant, POST Application ECHCG [3]	percentage damage caused to the plant, PRE Application ECHCG [3]	percentage damage caused to the plant, POST Application IPOHE [4]	percentage damage caused to the plant, PRE Application IPOHE [4]	percentage damage caused to the plant, POST Application SETFA (Setaria faberi (SETFA))	percentage damage caused to the plant, PRE Application SETFA (Setaria faberi (SETFA))	percentage damage caused to the plant, POST Application AMAPA [5]	percentage damage caused to the plant, PRE Application AMAPA [5]
CCn1nnnc1NC(=O)c1ccc(OC(F)(F)F)c(NS(C)(=O)=O)c1Cl [Compound 1.001]	5 (5=80-100%)	5 (5=80-100%)	4 (4=60-79%)	5 (5=80-100%)	5 (5=80-100%)	5 (5=80-100%)	5 (5=80-100%)	4 (4=60-79%)	5 (5=80-100%)	3 (3=40-59%)		
CCn1nnnc1NC(=O)c1ccc(OC(F)(F)F)c(NS(=O)(=O)CC)c1Cl [Compound 1.002, 2-chloro-3-(ethylsulfonylamino)-N-(1-ethyltetrazol-5-yl)-4-(trifluoromethoxy)benzamide]	5 (5=80-100%)	5 (5=80-100%)	5 (5=80-100%)	5 (5=80-100%)	5 (5=80-100%)	5 (5=80-100%)	4 (4=60-79%)	5 (5=80-100%)	5 (5=80-100%)	5 (5=80-100%)		
CCS(=O)(=O)Nc1c(OC(F)(F)F)ccc(C(=O)Nc2nnnn2C)c1Cl [Compound 1.003, 2-chloro-3-(ethylsulfonylamino)-N-(1-methyltetrazol-5-yl)-4-(trifluoromethoxy)benzamide]	5 (5=80-100%)	5 (5=80-100%)	4 (4=60-79%)	5 (5=80-100%)	5 (5=80-100%)	5 (5=80-100%)	5 (5=80-100%)	4 (4=60-79%)	5 (5=80-100%)	4 (4=60-79%)		
Cn1nnnc1NC(=O)c1ccc(OC(F)(F)F)c(NS(C)(=O)=O)c1Cl [Compound 1.004]	5 (5=80-100%)	5 (5=80-100%)	5 (5=80-100%)	5 (5=80-100%)	5 (5=80-100%)	5 (5=80-100%)	4 (4=60-79%)	3 (3=40-59%)	5 (5=80-100%)	5 (5=80-100%)		
CC(C)S(=O)(=O)Nc1c(OC(F)(F)F)ccc(C(=O)Nc2nnnn2C)c1Cl [Compound 1.076]			5 (5=80-100%)	5 (5=80-100%)		5 (5=80-100%)	4 (4=60-79%)	3 (3=40-59%)	5 (5=80-100%)	5 (5=80-100%)	5 (5=80-100%)	5 (5=80-100%)
CN(c1c(OC(F)(F)F)ccc(C(=O)Nc2nnnn2C)c1Cl)S(C)(=O)=O [Compound 1.077]			5 (5=80-100%)	5 (5=80-100%)		5 (5=80-100%)	4 (4=60-79%)	4 (4=60-79%)	5 (5=80-100%)	5 (5=80-100%)	5 (5=80-100%)	5 (5=80-100%)
CCN(c1c(OC(F)(F)F)ccc(C(=O)Nc2nnnn2C)c1Cl)S(=O)(=O)CC [Compound 1.078]			5 (5=80-100%)	5 (5=80-100%)		5 (5=80-100%)	4 (4=60-79%)	4 (4=60-79%)	5 (5=80-100%)	5 (5=80-100%)	5 (5=80-100%)	5 (5=80-100%)
CCN(c1c(OC(F)(F)F)ccc(C(=O)Nc2nnnn2C)c1Cl)S(C)(=O)=O [Compound 1.079]			5 (5=80-100%)	5 (5=80-100%)		5 (5=80-100%)	4 (4=60-79%)	4 (4=60-79%)	5 (5=80-100%)	5 (5=80-100%)	5 (5=80-100%)	5 (5=80-100%)
CCS(=O)(=O)N(C)c1c(OC(F)(F)F)ccc(C(=O)Nc2nnnn2C)c1Cl [Compound 1.080]			5 (5=80-100%)	5 (5=80-100%)	5 (5=80-100%)	5 (5=80-100%)	5 (5=80-100%)	5 (5=80-100%)	5 (5=80-100%)	5 (5=80-100%)	5 (5=80-100%)	5 (5=80-100%)
CCS(=O)(=O)Nc1c(OC(F)(F)C(F)F)ccc(C(=O)Nc2nnnn2C)c1Cl [Compound 1.086]			5 (5=80-100%)	5 (5=80-100%)	5 (5=80-100%)	5 (5=80-100%)	5 (5=80-100%)	2 (2=20-39%)	5 (5=80-100%)	4 (4=60-79%)	5 (5=80-100%)	5 (5=80-100%)
CCS(=O)(=O)N(C)c1c(OC(F)F)ccc(C(=O)Nc2nnnn2C)c1Cl [Compound 1.087]			5 (5=80-100%)	5 (5=80-100%)	5 (5=80-100%)	5 (5=80-100%)	4 (4=60-79%)	5 (5=80-100%)	5 (5=80-100%)	5 (5=80-100%)	5 (5=80-100%)	5 (5=80-100%)
